Read-outs that look alike come from different tables or passages of the source.
Tests used:
Format in all cases: cell-based
[1] = system: Phytophthora infestans; conditions: single active compound, 7 days after inoculation
[2] = system: Septoria tritici; test: Activity against leaf blotch on wheat caused by Septoria tritici in the microtiter test (Septtr); conditions: single active compound, day 7 after inoculation
[3] = system: Pyrenophora teres; test: Activity against Pyrenophora teres in the microtiter test (Pyrnte); conditions: single active compound, day 7 after inoculation
[4] = system: Fusarium culmorum; test: Activity against Fusarium culmorum in the microtiter test (Fusacu); conditions: single active compound, day 7 after inoculation

CCO[PH](=O)O [Fosetyl-Al]
Observed efficacy [%] ([1]; 16 ppm): 35%

Cc1cc(C2CC2)nc(Nc2ccccc2)n1 [Cyprodinil, (4-cyclopropyl-6-methylpyrimidin-2-yl)phenylamine]
Observed efficacy [%] ([2]; 1 ppm): 13%

zinc propylenebis(dithiocarbamate) polymer [Propineb]
Observed efficacy [%] ([1]; 1 ppm): 21%

COC=C(C(=O)OC)c1ccccc1COc1cccc(C(F)(F)F)n1 [Picoxystrobin, methyl 3-methoxy-2-[2-(6-trifluoromethylpyridin-2-yloxymethyl)phenyl]-acrylate]
Observed efficacy [%] ([3]; 0.016 ppm): 31%

COC(=O)N(OC)c1ccccc1COc1ccn(-c2ccc(Cl)cc2)n1 [Pyraclostrobin, methyl N-{2-[1-(4-chlorophenyl)-1H-pyrazol-3-yloxymethyl]phenyl}(N-methoxy)carbamate]
Observed efficacy [%] ([4]; 0.25 ppm): 5%

N#Cc1c(Cl)c(Cl)c(Cl)c(C#N)c1Cl [Chlorothalonil, 2,4,5,6-tetrachloroisophthalonitrile]
Observed efficacy [%] ([2]; 0.25 ppm): 46%

C=CCSC(=O)n1c(N)c(-c2ccccc2C)c(=O)n1C(C)C [I.1, 5-amino-2-isopropyl-3-oxo-4-o-tolyl-2,3-dihydro-pyrazole-1-carbothioic acid ally ester]
Observed efficacy [%] ([1]; 16 ppm): 16% | Observed efficacy [%] ([1]; 63 ppm): 37% | Observed efficacy [%] ([2]; 4 ppm): 37% | Observed efficacy [%] ([3]; 1 ppm): 34% | Observed efficacy [%] ([4]; 63 ppm): 14%
